Tests used:
NMDAR/TRPM4 complex = molecular target: T1, NMDAR/TRPM4 complex (Mus musculus, UniProt Q7TN37); test: Co-immunoprecipitation of the NMDAR/TRPM4 complex from lumbar spinal cord lysates of treated animals; format: in vivo; conditions: two weeks after osmotic pump implantation
T1 construct: Lumbar spinal cords were dissected from mice two weeks after ALZET osmotic pump (1002) implantation; from tissue; host or cells: lumbar spinal cord of wild-type mice treated in vivo with vehicle or FP802
T1 sequence (Q7TN37 whole entry, one chain of several): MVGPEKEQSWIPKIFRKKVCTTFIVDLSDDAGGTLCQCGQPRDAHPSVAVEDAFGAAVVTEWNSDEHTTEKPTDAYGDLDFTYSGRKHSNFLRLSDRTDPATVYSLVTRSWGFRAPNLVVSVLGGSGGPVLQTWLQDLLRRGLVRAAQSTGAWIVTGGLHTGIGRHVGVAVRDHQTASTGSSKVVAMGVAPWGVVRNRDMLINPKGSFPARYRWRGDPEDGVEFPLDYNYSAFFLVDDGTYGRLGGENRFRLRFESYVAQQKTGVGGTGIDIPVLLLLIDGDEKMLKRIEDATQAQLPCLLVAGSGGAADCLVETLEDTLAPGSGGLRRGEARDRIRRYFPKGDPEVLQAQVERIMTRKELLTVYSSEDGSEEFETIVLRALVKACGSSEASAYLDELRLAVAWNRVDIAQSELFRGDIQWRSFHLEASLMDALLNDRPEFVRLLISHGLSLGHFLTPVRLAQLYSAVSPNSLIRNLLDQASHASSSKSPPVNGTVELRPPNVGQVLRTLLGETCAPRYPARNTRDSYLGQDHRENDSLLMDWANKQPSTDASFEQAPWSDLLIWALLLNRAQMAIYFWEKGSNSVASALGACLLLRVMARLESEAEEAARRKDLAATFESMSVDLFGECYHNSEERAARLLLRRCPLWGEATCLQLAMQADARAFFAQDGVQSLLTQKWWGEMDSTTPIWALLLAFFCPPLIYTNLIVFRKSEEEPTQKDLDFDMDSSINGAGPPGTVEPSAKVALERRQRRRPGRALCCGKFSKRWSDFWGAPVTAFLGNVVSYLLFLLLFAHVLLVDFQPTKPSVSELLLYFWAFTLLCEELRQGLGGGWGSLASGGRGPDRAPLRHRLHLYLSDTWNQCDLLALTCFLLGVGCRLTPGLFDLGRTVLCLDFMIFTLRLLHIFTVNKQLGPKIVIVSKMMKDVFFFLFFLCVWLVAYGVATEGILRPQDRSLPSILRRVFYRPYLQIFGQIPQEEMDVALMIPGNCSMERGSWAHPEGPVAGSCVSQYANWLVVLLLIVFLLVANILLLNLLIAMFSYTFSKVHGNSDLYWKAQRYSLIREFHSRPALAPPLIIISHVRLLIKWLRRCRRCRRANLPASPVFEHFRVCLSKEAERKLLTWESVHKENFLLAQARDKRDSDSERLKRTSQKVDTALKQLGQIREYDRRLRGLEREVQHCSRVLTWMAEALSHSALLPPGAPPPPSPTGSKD
Protocol: (§1) A total of 83 heterozygous SOD1^G93A and 22 wild-type littermates were employed in this study. Eight WT and 12 SOD1^G93A mice were used to determine the EAAT2 protein levels in the spinal cord. Three SOD1^G93A mice were treated with FP802 to explore the concentration of FP802 in the spinal cord. Four SOD1^G93A mice were used to test the tolerability of mice to subcutaneously ALZET osmotic pump (type 2004) implantation with FP802 that allowed a continuous and constant supply of compound to the animals for 4 weeks. Eight wild-type mice were used to explore the disruption of the NMDAR/TRPM4 death signaling complex by FP802. In total, 52 SOD1^G93A mice were treated with FP802 or vehicle via ALZET osmotic pump from week 15 for 30 days (four cohorts). It was not possible to extend the treatment beyond the 30 days application period because the poor health state of many animals was incompatible with the anesthesia required for surgical implantation of a second osmotic pump. The number of animals used for experiments was specified in the figure legends. […]
All procedures for immunoprecipitation were carried out at 4°C as described before.[20] […] Protein concentrations of the supernatants were measured using the Pierce BCA Protein Assay Kit. […]

[1] = system: primary mouse cortical neurons; conditions: FP802 10 μM, 30 min pre-incubation, NMDA 20 μM, 2 h
Protocol: Primary mouse cortical neurons were pre-incubated with FP802 (10 μM) or vehicle for 30 min before a 2-h treatment with either bicuculline (Bic, 50 μM) to induce action potential (AP) bursting or NMDA (20 μM) to induce excitotoxic insults. The mRNA levels of Arc, Atf3, Bdnf, c-Fos, Inhibin beta A, and Npas4 were assessed by RT-qPCR. Data represent means ± SD, n = 3; ns: no significant difference, ∗p < 0.05, ∗∗p < 0.01, ∗∗∗p < 0.001, two-way ANOVA followed by Dunnett's multiple comparisons.
Primary mouse cortical neurons were prepared as previously described.[43]^,[44] Briefly, brain cortices from neonatal mice (C57/Bl6, RRID:MGI:7264769) were removed and cut into small pieces in the dissociation medium (in mM: 81.8 Na2SO4, 30 K2SO4, 15.85 MgCl2, 0.25 CaCl2, 1.0 HEPES, 1050.0 kynurenic acid; 0.2% phenol red and 0.36% glucose). The tissues were then digested with papain latex (10 units/mL) in the dissociation medium supplemented with 0.45 mg/mL L-cysteine for two times of 15 min in a 37°C water bath with stirring at 15 rpm. Then the tissue was washed twice with the dissociation medium and incubated with trypsin inhibitor (0.01 g/mL) in dissociation medium for 3 × 5 min. The samples were then triturated into single cell solution and plated at a density of 0.25 × 10^6 cell per well in 24-well plates, which have been pretreated with poly-D-lysine (26.7 mg/μL) and laminin (6.7 mg/μL). […]

[2] = molecular target: T2, human GluN1/GluN2B NMDARs (Homo sapiens, UniProt Q05586+Q13224); test: Automated patch clamp, NMDARs in HEK293 cells; format: cell-based; conditions: +40 mV; glycine 100 μM plus NMDA 40 μM; stable HEK293
T2 construct: host or cells: HEK293
T2 sequence (Q13224 27-1484, other chains not shown): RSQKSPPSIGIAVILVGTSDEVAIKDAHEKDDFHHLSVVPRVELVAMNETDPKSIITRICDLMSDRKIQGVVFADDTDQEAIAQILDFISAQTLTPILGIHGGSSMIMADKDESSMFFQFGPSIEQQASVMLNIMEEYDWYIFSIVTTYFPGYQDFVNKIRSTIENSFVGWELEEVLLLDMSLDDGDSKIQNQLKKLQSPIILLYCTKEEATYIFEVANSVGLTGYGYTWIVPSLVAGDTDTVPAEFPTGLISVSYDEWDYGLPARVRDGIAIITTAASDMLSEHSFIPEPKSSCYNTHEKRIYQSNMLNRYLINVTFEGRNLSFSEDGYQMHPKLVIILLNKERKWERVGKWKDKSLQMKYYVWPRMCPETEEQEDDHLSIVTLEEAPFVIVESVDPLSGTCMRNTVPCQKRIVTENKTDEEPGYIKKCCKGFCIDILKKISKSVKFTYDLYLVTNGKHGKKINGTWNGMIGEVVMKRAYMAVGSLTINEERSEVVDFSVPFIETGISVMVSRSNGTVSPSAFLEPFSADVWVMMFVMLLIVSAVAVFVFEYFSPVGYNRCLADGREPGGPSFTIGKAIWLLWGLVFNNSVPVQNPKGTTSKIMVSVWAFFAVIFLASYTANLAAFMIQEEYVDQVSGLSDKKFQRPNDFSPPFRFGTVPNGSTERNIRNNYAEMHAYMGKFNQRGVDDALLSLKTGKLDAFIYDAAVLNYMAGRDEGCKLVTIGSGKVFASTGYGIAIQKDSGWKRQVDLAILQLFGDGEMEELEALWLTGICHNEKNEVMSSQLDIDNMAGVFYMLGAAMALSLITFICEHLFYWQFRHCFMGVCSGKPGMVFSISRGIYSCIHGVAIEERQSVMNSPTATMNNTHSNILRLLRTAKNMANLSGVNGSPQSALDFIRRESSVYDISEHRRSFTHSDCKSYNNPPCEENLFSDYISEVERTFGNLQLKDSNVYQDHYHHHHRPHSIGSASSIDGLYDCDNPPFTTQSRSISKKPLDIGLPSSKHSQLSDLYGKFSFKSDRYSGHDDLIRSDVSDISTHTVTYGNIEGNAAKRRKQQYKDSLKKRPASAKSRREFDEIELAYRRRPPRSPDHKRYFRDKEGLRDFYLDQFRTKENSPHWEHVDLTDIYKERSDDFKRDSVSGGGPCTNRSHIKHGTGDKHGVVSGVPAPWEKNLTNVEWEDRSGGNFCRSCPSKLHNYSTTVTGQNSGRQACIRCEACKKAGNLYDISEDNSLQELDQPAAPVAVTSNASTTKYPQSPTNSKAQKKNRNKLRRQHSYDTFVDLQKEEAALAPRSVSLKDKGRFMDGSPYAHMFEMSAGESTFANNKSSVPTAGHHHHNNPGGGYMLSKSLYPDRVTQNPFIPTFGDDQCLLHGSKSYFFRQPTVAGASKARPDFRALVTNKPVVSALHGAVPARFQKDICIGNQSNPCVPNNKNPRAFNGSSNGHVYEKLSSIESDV
Protocol: (§2) Recombinant human GluN1 (UniProt ID Q05586) with GluN2A (Uniprot Q12879) or GluN2B (Uniprot Q13224) NMDARs were stably expressed under tetracycline control in HEK293 cell lines (Charles River). Voltage-clamp recordings were performed using the Sophion Qube platform which performs 384 parallel and independent patch-clamp recordings with digitally controlled microfluidics (Tecan D300) on a disposable single-hole or multi-hole QChip. The following extracellular solution was used: 145 mM NaCl, 4 mM KCl, 10 mM HEPES, 10 mM glucose, 2 mM CaCl2, 1 mM MgCl2; pH 7.4. The following intracellular solution was used: 70 mM CsF, 70 mM CsCl, 10 mM HEPES, 1 mM EGTA; 316 mOsm, pH 7.2. For analysis of channel activation kinetics, cells were held at −70 mV and stepped to −20 mV before the application of glycine (100 μM) plus NMDA (90 μM for GluN1/GluN2A and 40 μM for GluN1/GluN2B). […] Quality control thresholds were set according to the seal resistance (minimum […]), and failed experiments were excluded from the analysis. For analysis of steady state agonist IC50 values, voltage steps to +40 mV were performed in the presence and absence of agonists before and after compound application in the same cell. IC50 data were generated from agonist responses as described before.[20]
(§3) Figure S1. Analysis of IC50 values of FP802 for NMDARs in HEK293 cells. […] The effects of FP802 on NMDARs were evaluated at +40 […]

[3] = molecular target: T3, human GluN1/GluN2A NMDARs (Homo sapiens, UniProt Q05586+Q12879); test: Automated patch clamp, NMDARs in HEK293 cells; format: cell-based; conditions: +40 mV; glycine 100 μM plus NMDA 90 μM; stable HEK293
T3 construct: host or cells: HEK293
T3 sequence (Q12879 23-1464, other chains not shown): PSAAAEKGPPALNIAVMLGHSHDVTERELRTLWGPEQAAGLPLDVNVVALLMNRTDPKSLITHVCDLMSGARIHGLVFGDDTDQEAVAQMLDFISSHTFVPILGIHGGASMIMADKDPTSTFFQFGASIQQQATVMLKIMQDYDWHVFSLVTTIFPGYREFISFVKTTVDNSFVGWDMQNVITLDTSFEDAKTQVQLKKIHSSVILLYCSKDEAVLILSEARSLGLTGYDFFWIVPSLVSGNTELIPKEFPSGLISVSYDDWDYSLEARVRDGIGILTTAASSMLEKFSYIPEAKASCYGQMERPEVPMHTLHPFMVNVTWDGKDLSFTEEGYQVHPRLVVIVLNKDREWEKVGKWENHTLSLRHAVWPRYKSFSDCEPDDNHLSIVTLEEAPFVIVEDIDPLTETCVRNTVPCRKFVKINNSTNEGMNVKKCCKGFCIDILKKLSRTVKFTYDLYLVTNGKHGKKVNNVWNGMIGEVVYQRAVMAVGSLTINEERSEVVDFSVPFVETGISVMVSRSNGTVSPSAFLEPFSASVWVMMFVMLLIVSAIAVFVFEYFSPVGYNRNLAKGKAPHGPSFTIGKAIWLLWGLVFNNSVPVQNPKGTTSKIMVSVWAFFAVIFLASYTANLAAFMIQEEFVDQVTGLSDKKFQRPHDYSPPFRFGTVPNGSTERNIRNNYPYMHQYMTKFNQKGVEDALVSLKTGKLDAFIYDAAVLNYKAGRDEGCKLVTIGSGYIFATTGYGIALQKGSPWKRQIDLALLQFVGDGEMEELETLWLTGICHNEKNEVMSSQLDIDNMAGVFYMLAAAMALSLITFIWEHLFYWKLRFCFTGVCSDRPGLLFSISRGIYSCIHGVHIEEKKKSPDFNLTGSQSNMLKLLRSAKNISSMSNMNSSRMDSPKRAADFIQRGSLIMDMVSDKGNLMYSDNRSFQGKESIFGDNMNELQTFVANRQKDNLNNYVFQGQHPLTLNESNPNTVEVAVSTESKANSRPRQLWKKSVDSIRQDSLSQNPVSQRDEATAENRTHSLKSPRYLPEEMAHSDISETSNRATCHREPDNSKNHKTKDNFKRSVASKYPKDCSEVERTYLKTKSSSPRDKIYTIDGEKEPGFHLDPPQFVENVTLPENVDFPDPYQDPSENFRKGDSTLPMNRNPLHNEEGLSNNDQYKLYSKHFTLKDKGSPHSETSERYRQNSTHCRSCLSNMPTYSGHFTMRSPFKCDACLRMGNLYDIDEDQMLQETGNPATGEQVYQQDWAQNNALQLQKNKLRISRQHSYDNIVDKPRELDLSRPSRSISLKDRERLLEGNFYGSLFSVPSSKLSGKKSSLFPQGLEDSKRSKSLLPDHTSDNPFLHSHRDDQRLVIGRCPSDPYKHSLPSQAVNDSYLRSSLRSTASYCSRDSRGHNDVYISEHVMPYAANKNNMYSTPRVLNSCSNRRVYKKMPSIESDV
Protocol: as §2, §3

[4] = FP802 concentration in the spinal cord after subcutaneous osmotic pump delivery; format: in vivo
Description: We next used FP802 in the transgenic SOD1^G93A mouse model of ALS that expresses mutant human SOD1 with a glycine to alanine substitution at position 93 and whose general features resemble ALS in humans.[24]^,[25] SOD1^G93A mice represent a widely accepted animal model used extensively in ALS drug discovery to evaluate the efficacy of compounds now in clinical trials, which include masitinib, pridopidine, fasudil, guanabenz, and AMX0035.[26]^,[27]^,[28]^,[29]^,[30]^,[31]^,[32] We first confirmed using immunoblot analysis the reduction of EAAT2/GLT-1 expression in the spinal cord of SOD1^G93A mice (Figures 1F and 1G). Deregulation of glutamate uptake systems may lead to an increase in toxic eNMDAR signaling, which could be the cause of motor neuron death. To test this hypothesis, we applied FP802 subcutaneously to SOD1^G93A mice using an implanted ALZET osmotic mini pump to achieve a steady release of the drug. […] Following successful deactivation of the NMDAR/TRPM4 death signaling complex by FP802 in vivo, we next assessed potential therapeutic benefits of FP802 in SOD1^G93A mice. To implement an experimental design that resembles a clinical situation, we started treatment of SOD1^G93A mice with FP802 at the time of onset of motor deficits, which was around week 15.[33]^,[34]
as §1, with “cohorts).” for “cohorts). It was not possible to extend the treatment beyond the 30 days application period because the poor health state of many animals was incompatible with the anesthesia required for surgical implantation of a second osmotic pump. The number of animals used for experiments was specified in the figure legends.”

For `CCN(CCN)Cc1cccc(Cl)c1` [FP802], the “interaction of TRPM4 with the NMDAR subunit GluN2B (co-immunoprecipitation)” value (NMDAR/TRPM4 complex) was “disrupted”, the “transcriptional shut-off induced by eNMDARs” value [1] was “eliminated” and the “NMDA bath application-induced expression of IEGs Atf3, Arc, Bdnf, cFos, Inhibin beta A, Npas4” value ([1]; RT-qPCR, levels comparable to bicuculline-induced AP bursting) was “boosted”. For the same compound, the IC50 [2] was greater than 250 µM, the IC50 [3] was greater than 250 µM and the “concentration in the spinal cord” value ([4]; SOD1G93A mice, 40 mg/kg/day s.c. ALZET osmotic pump, 2 weeks, n = 3) was 7.54 ± 4.79 nmol/g. For the same compound, the concentration at 2 weeks ([4]; SOD1G93A transgenic, mouse, spinal cord, sc, SOD1G93A mice, 40 mg/kg/day s.c., 2 weeks, read-out: concentration in the spinal cord, corresponding molar concentration) was 3 to 12 µM and the “crossing of the mouse blood-spinal cord barrier” value ([4]; s.c. ALZET osmotic mini pump) was “readily crossed”.

From publication PMC10897598, “TwinF interface inhibitor FP802 stops loss of motor neurons and mitigates disease progression in a mouse model of ALS” (Cell Reports Medicine, 2024)
